“And” between values parts separate entries of the source, which are not always exact repeats. Identical values can stand only once. Counter-ions that a name gives are not always drawn. Peptide text beside a SMILES is read from it. * marks the point of attachment. Cbz = O=C(OCc1ccccc1)* A value given as a limit tells only on which side of the number the result lay.

Data set [1] deals with SARS-CoV-2. The conditions noted are these: Chlorocebus sabaeus; Vero C1008; 10 uM.
The next data set concerns Vero C1008. The conditions noted are these: chlorocebus sabaeus, vero c1008, 48 h.
In data set [2] the test system is SARS-CoV-2. Kind of data set: microbe, parasite or virus in culture. It is filed as functional, organism-based, Chlorocebus sabaeus, Vero C1008.
A short description of data set [3]: in vitro. The conditions noted are these: chlorocebus sabaeus, VERO-E6 cells (Vero C1008), uninfected, CC50.
Data set [4] is described as follows: in vitro. Conditions: chlorocebus sabaeus, VERO-E6 cells, Selectivity index.
The mark [5] stands for this setting: Severe acute respiratory syndrome coronavirus 2, Vero C1008, 48 h.

For the compound CETRIMONIUM BROMIDE, the inhibition in the data set on SARS-CoV-2 [1] was found to be 0.3%.
Consider `CC(C)(C)c1cc(C=C(C#N)C#N)cc(C(C)(C)C)c1O` [TYRPHOSTIN A9], for which the CC50 in the data set on Vero C1008 is 7.99 µM and 1.27 µM. The same compound yielded an IC50 with SARS-CoV-2 [2] (vero c1008) of over 33 µM.
Take hemin: the inhibition with SARS-CoV-2 [1] is -0.12%.
`Nc1nc2nn[nH]c2c(=O)[nH]1` [8-AZAGUANINE] showed a CC50 in the data set with Vero C1008 of 11.2 µM. In addition, the IC50 in the data set on SARS-CoV-2 [2] (vero c1008) was 3.72 µM and 10.3 µM. Moreover, in the data set “in vitro [3]”, the CC50 at 48 h came to 10.4 µM.
As for `O=C(c1c2ccccc2cc2ccccc12)N1CCC(N2CCC[C@@H](C(=O)N3CCOCC3)C2)CC1`, the CC50 in the data set with Vero C1008 came out at 10.9 µM. In addition, in “in vitro [3]”, the CC50 at 48 h worked out at 10.2 µM.
As to MERBROMIN, in the data set on SARS-CoV-2 [1], the inhibition is 0%.
`CNCc1ccc(-c2cc(-c3nc(-c4ccc(S(=O)(=O)C(C)C)cc4)cnc3N)on2)cc1` [BERZOSERTIB]: in the data set with Vero C1008, the CC50 was 10 µM and > 33 µM. Moreover, the IC50 in the data set with SARS-CoV-2 [2] (vero c1008) was 3.54 µM.
Consider Sodium orthovanadate, for which, in the data set on SARS-CoV-2 [1], the inhibition was found to be 0.13%.
As to PHENYLMERCURIC ACETATE, the inhibition with SARS-CoV-2 [1] was -0.23%.
COLISTIMETHATE SODIUM: the inhibition in the data set on SARS-CoV-2 [1] was -0.25%.
As for `Cc1cc(Nc2cc(N3CCN(C)CC3)nc(Sc3ccc(NC(=O)C4CC4)cc3)n2)n[nH]1`, the inhibition in the data set with SARS-CoV-2 [1] was found to be 0.28%.
As to ACRIFLAVINE HYDROCHLORIDE, in the data set with SARS-CoV-2 [1], the inhibition is -0.35%.
Consider GADOTERIDOL, for which the inhibition in the data set with SARS-CoV-2 [1] was -0.08%.
As to `CC(=O)OC[C@]12CCC(C)=C[C@H]1O[C@@H]1[C@H](O)[C@@H](OC(C)=O)[C@@]2(C)[C@@]12CO2`, the inhibition in the data set on SARS-CoV-2 [1] was -0.2%.
As to `CC(=O)[C@]1(O)Cc2c(O)c3c(c(O)c2[C@@H](O[C@H]2C[C@H](N)[C@H](O)[C@H](C)O2)C1)C(=O)c1ccccc1C3=O` [IDARUBICIN], the CC50 in the data set on Vero C1008 came out at 0.2 µM.
As to `CC(=O)[C@]1(O)Cc2c(O)c3c(c(O)c2[C@@H](O[C@H]2C[C@H](N)[C@H](O)[C@H](C)O2)C1)C(=O)c1ccccc1C3=O` [IDARUBICIN HYDROCHLORIDE], the CC50 in the data set with Vero C1008 worked out at 0.41 µM.
Turning to CYANOCOBALAMIN, the inhibition with SARS-CoV-2 [1] turned out to be 0.04%.
For the compound `COc1ccc(-c2cc3c(C)nc(N)nc3n([C@H]3CC[C@H](OCCO)CC3)c2=O)cn1` [PF-04691502], the CC50 in the data set on Vero C1008 was 0.32 µM and 0.09 µM. Moreover, the IC50 in the data set with SARS-CoV-2 [2] (setting [5]) is 0.55 µM; in the data set with SARS-CoV-2 [2] (vero c1008) it was 0.8 µM.
In turn, `CC(C)C[C@@H](C=O)NC(=O)[C@H](CC(C)C)NC(=O)[C@H](CC(C)C)NC(=O)OCc1ccccc1` [MG-132] (Cbz-Leu-Leu-Leu-aldehyde) registered a CC50 with Vero C1008 of 3.04 µM. In the data set on SARS-CoV-2 [2] (vero c1008), this compound gave an IC50 of 0.99 µM. In the data set “in vitro [3]”, this compound returned a CC50 at 48 h of 2.9 µM.
Regarding ESCIN, in the data set on SARS-CoV-2 [1], the inhibition is -0.23%.
With VANADATE ION, the inhibition in the data set on SARS-CoV-2 [1] was 0.02%.
On to VITAMIN E, for which, in the data set on SARS-CoV-2 [1], the inhibition is 0.25% (2×) and -0.04% (2×).
Regarding Vitamin B12, the inhibition in the data set on SARS-CoV-2 [1] is 0.12%.
On to TOCOFERSOLAN, for which, in the data set on SARS-CoV-2 [1], the inhibition was determined as 41.8%.
In turn, `Clc1ccccc1CNC[C@H]1CC[C@H](CNCc2ccccc2Cl)CC1` displayed an IC50 with SARS-CoV-2 [2] (setting [5]) of 22.7 µM. Moreover, the selectivity ratio in the data set “in vitro [4]” was found to be 1.36. Besides, in “in vitro [3]”, the CC50 at 48 h turned out to be 30.9 µM.
Consider `Cc1ccc(Nc2ncc3c(n2)N(C)C(=O)N(c2cc(NC(=O)c4cccc(C(F)(F)F)c4)ccc2C)C3)cn1`, for which the IC50 in the data set with SARS-CoV-2 [2] (setting [5]) was 5.21 µM. In “in vitro [4]”, the selectivity ratio turned out to be 0.12. The compound further had a CC50 at 48 h in the data set “in vitro [3]” of 0.61 µM.
Regarding Auranofin, the inhibition in the data set on SARS-CoV-2 [1] is -0.39%.
Same read-out and setting: for AUROTHIOGLUCOSE the value was -0.05%.
`CCN(CC)Cc1cc(Nc2ccnc3cc(Cl)ccc23)ccc1O` [AMODIAQUINE] returned an IC50 in the data set with SARS-CoV-2 [2] (setting [5]) of 4.07 µM. In addition, the selectivity ratio in “in vitro [4]” stood at 4.12. Moreover, the CC50 at 48 h in “in vitro [3]” came out at 16.8 µM.
With `CNC(=O)c1cc(Oc2ccc(NC(=O)Nc3ccc(Cl)c(C(F)(F)F)c3)c(F)c2)ccn1` [REGORAFENIB], the CC50 in the data set with Vero C1008 is > 33 µM and 8.31 µM. Moreover, the 50% inhibitory concentration (IC50) in the data set with SARS-CoV-2 [2] (setting [5]) was over 33 µM; in the data set with SARS-CoV-2 [2] (vero c1008), 24.9 µM.
On to `COc1cc2c(NC3CCN(C4CCCCC4)CC3)nc(N3CCCN(C(C)C)CC3)nc2cc1OCCCN1CCCCC1`, for which, in the data set with Vero C1008, the CC50 came out at 18.6 µM. The compound also gave an IC50 with SARS-CoV-2 [2] (vero c1008) of over 33 µM. The compound also came in with a CC50 at 48 h in the data set “in vitro [3]” of over 33 µM.
With NYSTATIN, the inhibition with SARS-CoV-2 [1] was determined as 0.08%.
Regarding `Cc1c(CN2CCN(C(=O)[C@H](C)O)CC2)sc2c(N3CCOCC3)nc(-c3cnc(N)nc3)nc12` [APITOLISIB], in the data set with SARS-CoV-2 [2] (setting [5]), the IC50 worked out at 2.31 µM. In addition, in “in vitro [4]”, the selectivity ratio stood at 0.22. In addition, the CC50 at 48 h in the data set “in vitro [3]” is 0.5 µM.

The record behind these values is ChEMBL document CHEMBL4495565, “Cytopathic SARS-Cov2 screening on VERO-E6 cells in a large repurposing effort” (2020).
